Test results reported in patent US4920103A, “Modifications of mycinose and 3-O-demethylmycinose in tylosin-type macrolides” (Eli Lilly and Company, priority 1986, dated 1990).
Values after ≈ are worked out from the molar mass of the structure shown. Like-named read-outs stand apart in the source and are kept apart here.

Experiments:
[1] = system: Haemophilus influenzae 76; assay: MIC, standard agar-dilution assay, H. influenzae 76; format: cell-based
Procedure: (§1) The MIC's in Table II were determined by standard agar-dilution assays. The MIC's in Table III were obtained using conventional broth-dilution microtiter tests.

[2] = system: Streptococcus pneumoniae Park I; assay: MIC, standard agar-dilution assay, S. pneumoniae Park I; format: cell-based; details: Streptococcus pneumoniae
Procedure: as §1

[3] = system: Streptococcus Group D 2041; assay: MIC, standard agar-dilution assay, Streptococcus Group D 2041; format: cell-based; details: GROUPD2041
Procedure: as §1

[4] = system: Pseudomonas aeruginosa X239; assay: MIC, standard agar-dilution assay, P. aeruginosa X239; format: cell-based
Procedure: as §1

[5] = system: Staphylococcus aureus X400; assay: MIC, standard agar-dilution assay, S. aureus X400; format: cell-based
Procedure: as §1

[6] = system: Staphylococcus aureus X1.1; assay: MIC, standard agar-dilution assay, S. aureus X1.1; format: cell-based
Procedure: as §1

[7] = system: Haemophilus influenzae C.L.; assay: MIC, standard agar-dilution assay, H. influenzae C.L.; format: cell-based
Procedure: as §1

[8] = system: Streptococcus Group D X66; assay: MIC, standard agar-dilution assay, Streptococcus Group D X66; format: cell-based
Procedure: as §1

[9] = system: Staphylococcus epidermidis 222; assay: MIC, standard agar-dilution assay, S. epidermidis 222; format: cell-based
Procedure: as §1

[10] = system: Streptococcus pyogenes C203; assay: MIC, standard agar-dilution assay, S. pyogenes C203; format: cell-based; details: Streptococcus pyogenes, C203
Procedure: as §1

[11] = system: Staphylococcus aureus S13E; assay: MIC, standard agar-dilution assay, S. aureus S13E; format: cell-based
Procedure: as §1

[12] = system: Staphylococcus epidermidis EPI1; assay: MIC, standard agar-dilution assay, S. epidermidis EPI1; format: cell-based
Procedure: as §1

[13] = system: Escherichia coli EC14; assay: MIC, standard agar-dilution assay, E. coli EC14; format: cell-based
Procedure: as §1

[14] = system: Staphylococcus aureus V41; assay: MIC, standard agar-dilution assay, S. aureus V41; format: cell-based; details: Staphylococcus aureus, V41
Procedure: as §1

[15] = system: Klebsiella pneumoniae X68; assay: MIC, standard agar-dilution assay, K. pneumoniae X68; format: cell-based
Procedure: as §1

[16] = system: Streptococcus pyogenes C203; assay: Protection of mice experimentally infected with Streptococcus pyogenes C203; format: in vivo; details: Streptococcus pyogenes, doses given 1 and 4 hours postinfection, read-out: ED50
Procedure: The formula 1 compounds have shown in vivo antimicrobial activity against experimentally-induced infections in laboratory animals. When two doses of test compound were administered to mice experimentally infected with Streptococcus pyogenes C203, the activity observed was measured as an ED50 value [effective dose in mg/kg to protect 50% of the test animals: see Warren Wick, et al., J. Bacteriol. 81, 233-235 (1961)].
^a mg/kg × 2; doses given 1 and 4 hours postinfection

[17] = agar-dilution, ampicillin-resistant strain, read-out: MIC
[18] = agar-dilution, ampicillin-sensitive strain, read-out: MIC

Row | SMILES | MIC [1] | MIC [2] | MIC ([3]; agar-dilution, read-out: MIC) | MIC [5] | MIC [6] | MIC [7] | MIC [8] | MIC [9] | MIC [10] | MIC [11] | MIC [12] | MIC [14] | MIC [1, 17] | MIC [3] | MIC ([4]; agar-dilution, read-out: MIC) | MIC [7, 18] | MIC ([13]; agar-dilution, read-out: MIC) | MIC ([15]; agar-dilution, read-out: MIC) | also measured
1 | CCC1OC(=O)CC(O)C(C)C(OC2OC(C)C(O)C(N(C)C)C2O)C(CCOc2ccccc2)CC(C)C(=O)C=CC(C)=CC1COC1OC(C)C(OS(=O)(=O)Cc2ccccc2)C(OC)C1OC (stereo not shown) [Compound 17, 4"-O-Benzylsulfonyl-20-DH-20-O-phenyl-desmycosin] | > 128 µg/mL | 2 µg/mL (≈ 1.99 µM) | 128 µg/mL (≈ 127 µM) | 4 µg/mL (≈ 3.98 µM) | 4 µg/mL (≈ 3.98 µM) | > 128 µg/mL | 32 µg/mL (≈ 31.9 µM) | 2 µg/mL (≈ 1.99 µM) | 4 µg/mL (≈ 3.98 µM) | 4 µg/mL (≈ 3.98 µM) | 4 µg/mL (≈ 3.98 µM) | 4 µg/mL (≈ 3.98 µM) | – | – | – | – | – | – | MIC [4]: > 128 µg/mL; MIC [13]: > 128 µg/mL; MIC [15]: > 128 µg/mL
2 | CCC1OC(=O)CC(O)C(C)C(OC2OC(C)C(O)C(N(C)C)C2O)C(CCOc2ccccc2)CC(C)C(=O)C=CC(C)=CC1COC1OC(C)C(I)C(OC)C1OC (stereo not shown) [Compound 19, 4"-Deoxy-4"-iodo-20-DH-20-O-phenyl-desmycosin] | – | 8 µg/mL (≈ 8.33 µM) | – | 8 µg/mL (≈ 8.33 µM) | 8 µg/mL (≈ 8.33 µM) | – | 8 µg/mL (≈ 8.33 µM) | 8 µg/mL (≈ 8.33 µM) | 8 µg/mL (≈ 8.33 µM) | 8 µg/mL (≈ 8.33 µM) | 8 µg/mL (≈ 8.33 µM) | 8 µg/mL (≈ 8.33 µM) | > 128 µg/mL | 8 µg/mL (≈ 8.33 µM) | > 128 µg/mL | > 128 µg/mL | > 128 µg/mL | > 128 µg/mL | –
3 | CCC1OC(=O)CC(O)C(C)C(OC2OC(C)C(OC(C)=O)C(N(C)C)C2OC(C)=O)C(CCOc2ccccc2)CC(C)C(=O)C=CC(C)=CC1COC1OC(C)C(N)C(OC)C1OC (stereo not shown) [Compound 20, 2',4'-Di-O-acetyl-4"-amino-4"-deoxy-20-DH-20-O-phenyldesmycosin] | 16 µg/mL (≈ 17.1 µM) | 1 µg/mL (≈ 1.07 µM) | – | 0.5 µg/mL (≈ 0.536 µM) | 0.25 µg/mL (≈ 0.268 µM) | 16 µg/mL (≈ 17.1 µM) | 4 µg/mL (≈ 4.29 µM) | 0.25 µg/mL (≈ 0.268 µM) | 0.25 µg/mL (≈ 0.268 µM) | 0.5 µg/mL (≈ 0.536 µM) | 0.5 µg/mL (≈ 0.536 µM) | 0.25 µg/mL (≈ 0.268 µM) | – | 8 µg/mL (≈ 8.57 µM) | > 128 µg/mL | – | > 128 µg/mL | > 128 µg/mL | –
4 | CCC1OC(=O)CC(O)C(C)C(OC2OC(C)C(OC(C)=O)C(N(C)C)C2OC(C)=O)C(CCOc2ccccc2)CC(C)C(=O)C=CC(C)=CC1COC1OC(C)C([n+]2ccccc2)C(OC)C1OC (stereo not shown) [Compound 22, 2',4'-Di-O-acetyl-4"-deoxy-20-DH-20-O-phenyl-4"-pyridinium-desmycosin] | 32 µg/mL | 2 µg/mL | – | 4 µg/mL | 2 µg/mL | 64 µg/mL | 16 µg/mL | 4 µg/mL | 4 µg/mL | 4 µg/mL | 2 µg/mL | 4 µg/mL | – | 16 µg/mL | > 128 µg/mL | – | > 128 µg/mL | > 128 µg/mL | –
5 | CCC1OC(=O)CC(O)C(C)C(OC2OC(C)C(O)C(N(C)C)C2O)C(CCOc2ccccc2)CC(C)C(=O)C=CC(C)=CC1COC1OC(C)C(NC(C)=O)C(OC)C1OC (stereo not shown) [Compound 37, 4"-Acetylamino-4"-deoxy-20-DH-20-O-phenyl-desmycosin] | – | 4 µg/mL (≈ 4.49 µM) | 128 µg/mL (≈ 144 µM) | 4 µg/mL (≈ 4.49 µM) | 8 µg/mL (≈ 8.98 µM) | – | 64 µg/mL (≈ 71.8 µM) | 8 µg/mL (≈ 8.98 µM) | – | 4 µg/mL (≈ 4.49 µM) | 8 µg/mL (≈ 8.98 µM) | 4 µg/mL (≈ 4.49 µM) | > 128 µg/mL | – | > 128 µg/mL | > 128 µg/mL | > 128 µg/mL | > 128 µg/mL | MIC ([10]; agar-dilution, read-out: MIC): 2 µg/mL (≈ 2.24 µM)
6 | CCC1OC(=O)CC(O)C(C)C(OC2OC(C)C(OC(C)=O)C(N(C)C)C2OC(C)=O)C(CCOc2ccccc2)CC(C)C(=O)C=CC(C)=CC1COC1OC(C)C(OS(=O)(=O)C(F)(F)F)C(OC)C1OC (stereo not shown) [Compound 40, 2',4'-Di-O-acetyl-20-DH-20-O-phenyl-4"-O-(trifluoromethanesulfonyl)-desmycosin] | – | 8 µg/mL (≈ 7.5 µM) | > 128 µg/mL | 2 µg/mL (≈ 1.88 µM) | 2 µg/mL (≈ 1.88 µM) | – | – | 2 µg/mL (≈ 1.88 µM) | 2 µg/mL (≈ 1.88 µM) | 2 µg/mL (≈ 1.88 µM) | 2 µg/mL (≈ 1.88 µM) | 2 µg/mL (≈ 1.88 µM) | > 128 µg/mL | – | > 128 µg/mL | > 128 µg/mL | > 128 µg/mL | > 128 µg/mL | MIC ([8]; agar-dilution, read-out: MIC): > 128 µg/mL
7 | CCC1OC(=O)CC(O)C(C)C(OC2OC(C)C(O)C(N(C)C)C2O)C(CCOc2ccccc2)CC(C)C(=O)C=CC(C)=CC1COC1OC(C)C(OCCOC)C(OC)C1OC (stereo not shown) [Compound 44, 20-DH-4"-(2-Methoxyethoxy)-20-O-phenyl-desmycosin] | – | 4 µg/mL (≈ 4.4 µM) | – | 2 µg/mL (≈ 2.2 µM) | 2 µg/mL (≈ 2.2 µM) | – | 8 µg/mL (≈ 8.81 µM) | 2 µg/mL (≈ 2.2 µM) | 4 µg/mL (≈ 4.4 µM) | 2 µg/mL (≈ 2.2 µM) | 2 µg/mL (≈ 2.2 µM) | 2 µg/mL (≈ 2.2 µM) | > 128 µg/mL | 32 µg/mL (≈ 35.2 µM) | > 128 µg/mL | > 128 µg/mL | > 128 µg/mL | > 128 µg/mL | –
8 | CCCN(CCC)C1C(C)OC(OCC2C=C(C)C=CC(=O)C(C)CC(CCOc3ccccc3)C(OC3OC(C)C(O)C(N(C)C)C3O)C(C)C(O)CC(=O)OC2CC)C(OC)C1OC (stereo not shown) [Compound 48, 4"-Deoxy-20-DH-20-O-phenyl-4"-[di-(n-propyl)amino]desmycosin] | – | 4 µg/mL (≈ 4.29 µM) | – | 16 µg/mL (≈ 17.1 µM) | 16 µg/mL (≈ 17.1 µM) | – | 16 µg/mL (≈ 17.1 µM) | 16 µg/mL (≈ 17.1 µM) | 8 µg/mL (≈ 8.57 µM) | 16 µg/mL (≈ 17.1 µM) | 16 µg/mL (≈ 17.1 µM) | 16 µg/mL (≈ 17.1 µM) | > 128 µg/mL | 16 µg/mL (≈ 17.1 µM) | > 128 µg/mL | > 128 µg/mL | > 128 µg/mL | > 128 µg/mL | –
9 | CCC1OC(=O)CC(O)C(C)C(OC2OC(C)C(O)C(N(C)C)C2O)C(CCOc2ccccc2)CC(C)C(=O)C=CC(C)=CC1COC1OC(C)C(OC)C(O)C1OC (stereo not shown) [Compound 50, 4"-O-Methyl-20-DH-20-O-phenyl-lactenocin] | – | 8 µg/mL (≈ 9.41 µM) | – | 0.5 µg/mL (≈ 0.588 µM) | 0.5 µg/mL (≈ 0.588 µM) | – | 16 µg/mL (≈ 18.8 µM) | 0.25 µg/mL (≈ 0.294 µM) | 4 µg/mL (≈ 4.71 µM) | 0.5 µg/mL (≈ 0.588 µM) | 0.5 µg/mL (≈ 0.588 µM) | 0.5 µg/mL (≈ 0.588 µM) | – | 32 µg/mL (≈ 37.6 µM) | > 128 µg/mL | 128 µg/mL (≈ 151 µM) | > 128 µg/mL | > 128 µg/mL | ED50 ([16]; C203, oral): 75.3 mg/kg; ED50 ([16]; C203, sc, subcutaneous): > 10 mg/kg
10 | CCC1OC(=O)CC(O)C(C)C(OC2OC(C)C(O)C(N(C)C)C2O)C(CCOc2ccccc2)CC(C)C(=O)C=CC(C)=CC1COC1OC(C)C=C(OC)C1OC (stereo not shown) [Compound 54, 3",4"-Anhydro-20-DH-20-O-phenyl-desmycosin] | – | 4 µg/mL (≈ 4.81 µM) | – | 0.5 µg/mL (≈ 0.601 µM) | 1 µg/mL (≈ 1.2 µM) | – | 8 µg/mL (≈ 9.61 µM) | 0.25 µg/mL (≈ 0.3 µM) | 4 µg/mL (≈ 4.81 µM) | 1 µg/mL (≈ 1.2 µM) | 1 µg/mL (≈ 1.2 µM) | 1 µg/mL (≈ 1.2 µM) | 128 µg/mL (≈ 154 µM) | 8 µg/mL (≈ 9.61 µM) | > 128 µg/mL | 128 µg/mL (≈ 154 µM) | > 128 µg/mL | > 128 µg/mL | –
